Data reported in publication PMC10269895 (Microbiology Spectrum, 2023).
“And” between values parts separate entries of the source, which are not always exact repeats. Equal entries are not always repeated.

Tests used:
HepG2 cells = assay: Cytotoxicity (CellTiter-Glo ATP and neutral red uptake); type: cell-based, human; conditions: 24 h; highest concentration with cell viability of >80%
Procedure: The toxicity of GE81112A toward human hepatocellular carcinoma HepG2 HB-8065 (ATCC) cells and freshly isolated primary Sprague-Dawley rat hepatocytes (Charles River) was assessed by using the CellTiter-Glo ATP-monitoring kit (Promega) and by quantifying the ability to store the dye neutral red (neutral red uptake [NRU] solution; Sigma-Aldrich, St. Louis, MO, USA). The assay was conducted in 96-well microtiter plates in a test volume of 200 μL. GE81112A was tested in an 8-fold 1:2 dilution series with a final concentration range of […]. HepG2 cells or primary hepatocytes were maintained at 37°C in 5% CO2 in DMEM-F-12 medium containing 1% nonessential amino acids, 1% sodium pyruvate, and 10% heat-inactivated FCS. Prior to each test, 100 μL of culture medium was added to each well (each containing about 20,000 cells), and the plates were incubated for 16 h as described above. GE81112A was diluted in culture medium to obtain appropriate concentrations and was added to the wells as six replicates. […] After incubation for 24 h as described above, cell viability was calculated either by cell lysis and subsequent luminometric quantification of the ATP concentration in each sample or by measurement of the amount of neutral red taken up by the cells. NRU was measured at 540 nm (Tecan Genios Pro) after 3 h of incubation with NRU solution and subsequent cell lysis. […]

[1] = PK in mice after a single i.v. administration; type: in vivo, male Swiss mice; conditions: 10 mg/kg i.v.
Procedure: In order to determine the PK parameters of GE81112A, a single i.v. dose of 10 mg/kg in solution was administered to male Swiss mice, and plasma, urine, and tissue concentrations were monitored over 24 h (Fig. 2). After i.v. dosing, the different parameters were investigated in more detail. A high distribution of GE81112A in the kidney points toward its excretion via urine. Therefore, urinary tract infections (UTIs) represent the most probable scope of application (Table 2).
Plasma, urine, and tissue concentrations and PK parameters for GE81112 were assessed after a single i.v. administration of a 10-mg/kg solution to male Swiss mice. Briefly, 5 mL/kg of a 2-mg/mL solution of GE81112A was administered i.v. to fed male Swiss mice (weight of 20 g, obtained from Janvier; n = 24 mice). Samples were collected at 0.08, 0.25, 0.5, 1, 2, 4, 8, and 24 h postadministration for bioanalysis. Bioanalytical samples (plasma, urine, and tissue) were analyzed for the concentration of GE81112 using an exploratory LC-MS/MS method, and PK parameters were estimated using the PK software Phoenix WinNonlin v6.4, using a noncompartmental model and a linear trapezoidal interpolation calculation. The studies were ethically approved by the German governmental authority (protocol number FH/2002; Regierungspräsidium Darmstadt).

[2] = In vivo tolerability study in uninfected mice; parameters: species or system Swiss mice; conditions: 30 mg/kg single i.v. bolus in NaCl (0.9%)
Procedure: We first performed a tolerability study in uninfected mice by injecting GE81112A at up to 30 mg/kg, formulated in NaCl (0.9%), via intravenous (i.v.) bolus administration.
All animal studies were performed in accordance with relevant guidelines and regulations. A 30 mg/kg dose of GE81112A, formulated in 0.9% NaCl, was administered to noninfected Swiss mice (n = 3), using a single i.v. bolus. Adverse events and animal weights were monitored for 24 h after administration.

[3] = tested on: Salmonella enterica serovar Typhimurium; assay: Ames II test; type: cell-based; conditions: with and without S9
Procedure: The test was carried out with and without metabolic activation by S9 liver homogenate from rats that had been pretreated with Arcolor, S9 mix. The Salmonella enterica serovar Typhimurium tester strains included the mixed strains TA7001 to TA7006 for detection of base pair substitutions and TA98 for detection of frameshift mutations ([18]). Bacterial cultures (from frozen stocks) were grown overnight and tested for genotype conformation. Test compound diluted in DMSO was tested at 16, 50, 160, 500, 1,600, and 5,000 μg/mL with each strain, both in the presence and in the absence of the exogenous hepatic microsomal fraction (S9) from Aroclor 1254-treated rats (obtained as described above). […] Then, 2.8 mL of a pH indicator solution (Merck KGaA, Darmstadt, Germany) (bromocresol purple) containing trace amounts of histidine and biotin (ready-to-use commercial solution) was added to each well, and all samples were then transferred into a 384-well plate. […] Toxicity was assessed by evaluating the density of growth of the background lawn of bacteria. Mutagenicity was assessed by counting the number of wells with color changes (purple or yellow) or the number of easily visible colonies (revertants).

[4] = Solubility in 0.9% NaCl solution; type: physicochemical; conditions: sodium chloride solution (0.9%)
Procedure: (ii) Solubility in 0.9% NaCl solution. To obtain a crystal-like form of the compound, GE81112A was dissolved in water followed by freeze-drying. Afterwards, 510 μg GE81112A was transferred to a glass vial with a microinsert, and 50 μL NaCl (0.9%) was added.

In the case of `NC(=O)OC[C@@H](O)C[C@H](NC(=O)[C@H]1NCCC[C@H]1O)C(=O)N[C@@H](Cc1c[nH]cn1)C(=O)N[C@H](C(=O)O)[C@H](O)c1cnc(Cl)[nH]1` [GE81112A], the “No observed effect concentration (NOEC)” value (HepG2 cells) is reported as 15.6 µM, the “Tissue/plasma ratio, kidney” value [1] is reported as 3.00 and the “Tissue/plasma ratio, liver” value [1] is reported as 20 and 20.6. For the same compound, the “Tissue/plasma ratio, lung” value [1] was 0.515, the “Proportion of dose recovered in urine” value ([1]; over 24 h) was 30% and the clearance ([1]; male, Swiss, mouse, in vivo, iv) was 12.2 mL/min/kg. It also gave a Vd ([1]; male, Swiss, mouse, in vivo, iv, read-out: Volume of distribution) of 0.321 L/kg, a half-life ([1]; male, Swiss, mouse, plasma, iv) of 4.5 h and a dose excreted ([1]; male, Swiss, mouse, urine, iv, over 24 h, read-out: Proportion of dose recovered in urine) of 30%. The “Tolerability (signs of toxicity or adverse effects)” value [2] was “did not show any sign of toxicity or adverse effects”, the Mutagenicity [3] was “no mutagenicity” and the solubility [4] was over 500 µg/mL.
